Results from patent US20210268056A1, “TAXODIONE FOR ITS USE FOR PROTECTING MUSCLE AND MEAT FROM OXIDATION” (CENTRE NATIONAL DE LA RECHERCHE SCIENTIFIQUE, priority 2018, published 2021).
“Also recorded” adds a separate entry of the source.

Key:
[1] = DPPH free radical scavenging assay; format: biochemical
Protocol: Radical scavenging activity was evaluated using DPPH according to the method described by Morel et al. with some modifications (Morel, Landreau, Nguyen, Derbre, Grellier, Pape, et al., 2012). Tested extracts and standards were diluted in absolute ethanol at different concentrations. Ethanol was used as blank, and 10, 25, 50 and 75 μM Trolox were used as calibration solutions. Tested compounds or standard solutions (100 μL) were placed in 96-well plates in triplicate for each tested concentration. Absolute ethanol was added (75 μL). The reaction was initiated by adding 25 μL of freshly prepared DPPH solution (1 mM) to obtain a final volume of 200 μL/well. After 30 min in the dark at room temperature, absorbance was determined at 550 nm with a UVMAX Molecular Devices microtiter plate reader (MDS Inc., Toronto, Canada). Results were expressed as the effective concentration at which 50% of DPPH radicals were scavenged (EC50 in μg/mL). The results are the mean±standard deviation (SD) of three independent experiments (three wells per concentration for each experiment).

human myoblasts [2] = assay: H2O2-induced cell death in human myoblasts (Muse Count and Viability Kit); format: cell-based
Protocol: The quadriceps muscle biopsy was from one healthy adult (AFM-BTR “Banque de tissus pour la recherche”). Myoblasts were purified from the muscle biopsy and were cultured on collagen-coated dishes in DMEM/F12 medium with 10% foetal bovine serum (FBS), 0.1% Ultroser G and 1 ng/ml of human basic fibroblast growth factor (proliferation medium), as previously described (Kitzmann, Bonnieu, Duret, Vernus, Barro, Laoudj-Chenivesse, et al., 2006). For cell differentiation, confluent cells were cultured in DMEM with 4% FBS for 3-5 days (differentiation medium).
Myoblasts: Myoblasts were seeded in 35 mm collagen-coated dishes, cultured in proliferation medium, pre-incubated or not with the tested compounds for 24 h and then incubated or not with a lethal concentration of hydrogen peroxide (H2O2), a strong pro-oxidant/pro-apoptotic compound, for 24 h. […] Dead myoblasts were identified by staining with the Muse® Count and Viability Kit, and ROS was quantified with the Muse® Oxidative Stress Kit, followed by analysis with a Fluorescence Activated Cell Sorting (FACS) Muse apparatus (Millipore, France). […] As myotubes are too big for FACS analysis, H2O2 effect was determined by quantifying lactate dehydrogenase (LDH) activity, which is increased in the culture medium during tissue damage, using the LDH Cytotoxic Kit (ThermoFisher, France). […]

protein phosphatase 2C = details: Kusumoto 2014; cited from earlier work
[3] = test system: MOLT-4, HT-29, and MCF-7 cells; details: Mirzaei 2017; cited from earlier work
CHOP gene = assay: RT-qPCR of CHOP gene expression in myoblasts; format: cell-based, human
Protocol: Myoblasts were seeded in 35 mm collagen-coated dishes, cultured in proliferation medium, pre-incubated or not with TX for 24 h, and then incubated or not with a sub-lethal concentration of H2O2 (80 μM; to avoid interference with dead cells) for 24 h. Then, total RNA was isolated from muscle cells using the NucleoSpin RNA II Kit (Macherey-Nagel, Hoerdt, France). The RNA concentration of each sample was measured with an Eppendorf BioPhotometer. cDNA was prepared using the Verso cDNA Synthesis Kit (Thermo Scientific, Ilkirch, France).
The expression of the CHOP (target) and RPLPO (control) genes was analysed by quantitative polymerase chain reaction (qPCR) on a LightCycler apparatus (Roche Diagnostics, Meylan, France), as previously described (El Haddad, Notarnicola, Evano, El Khatib, Blaquiere, Bonnieu, et al., 2017), using the following primers: […]

microbes = details: Zhang 2012; Kuzma 2012; cited from earlier work
human myotubes [4] = assay: H2O2 toxicity in myotubes by lactate dehydrogenase (LDH) activity; format: cell-based; details: TX 0.5 μg/mL 24 h, then H2O2 (550 μM) 24 h, FIG. 4D
Protocol: (§1) Myoblasts: Myoblasts were seeded in 35 mm collagen-coated dishes, cultured in proliferation medium, pre-incubated or not with the tested compounds for 24 h and then incubated or not with a lethal concentration of hydrogen peroxide (H2O2), a strong pro-oxidant/pro-apoptotic compound, for 24 h. The optimal H2O2 concentration was the concentration required to kill between 30% and 50% of all cells and was established before each experiment. In general, myoblasts were incubated with 120 μM H2O2. Dead myoblasts were identified by staining with the Muse® Count and Viability Kit, and ROS was quantified with the Muse® Oxidative Stress Kit, followed by analysis with a Fluorescence Activated Cell Sorting (FACS) Muse apparatus (Millipore, France). Myotubes: Myoblasts were seeded in 35 mm collagen-coated dishes, cultured in proliferation medium until confluence, and then switched to differentiation medium for 4 days. At day 2, cells were incubated with TX for 24 h prior to incubation with H2O2 for 24 h. […] As myotubes are too big for FACS analysis, H2O2 effect was determined by quantifying lactate dehydrogenase (LDH) activity, which is increased in the culture medium during tissue damage, using the LDH Cytotoxic Kit (ThermoFisher, France). In parallel, myotube cultures were loaded with a ROS-fluorescent probe (CellRox) followed by fluorescence quantification using a TECAN spectrophotometer.

fungi = details: Kusumoto 2010; Machumi 2010; Bufalo 2016; cited from earlier work
Leishmania = details: Naman 2016; Zhang 2012; Machumi 2010; Bufalo 2016; cited from earlier work
bacteria = details: Machumi 2010; Bufalo 2016; cited from earlier work
Plasmodium = details: Zhang 2012; cited from earlier work
acetylcholinesterase = acetylcholinesterase (Homo sapiens, UniProt P22303); details: Kuzma 2016; cited from earlier work
acetylcholinesterase, sequence (P22303 32-614): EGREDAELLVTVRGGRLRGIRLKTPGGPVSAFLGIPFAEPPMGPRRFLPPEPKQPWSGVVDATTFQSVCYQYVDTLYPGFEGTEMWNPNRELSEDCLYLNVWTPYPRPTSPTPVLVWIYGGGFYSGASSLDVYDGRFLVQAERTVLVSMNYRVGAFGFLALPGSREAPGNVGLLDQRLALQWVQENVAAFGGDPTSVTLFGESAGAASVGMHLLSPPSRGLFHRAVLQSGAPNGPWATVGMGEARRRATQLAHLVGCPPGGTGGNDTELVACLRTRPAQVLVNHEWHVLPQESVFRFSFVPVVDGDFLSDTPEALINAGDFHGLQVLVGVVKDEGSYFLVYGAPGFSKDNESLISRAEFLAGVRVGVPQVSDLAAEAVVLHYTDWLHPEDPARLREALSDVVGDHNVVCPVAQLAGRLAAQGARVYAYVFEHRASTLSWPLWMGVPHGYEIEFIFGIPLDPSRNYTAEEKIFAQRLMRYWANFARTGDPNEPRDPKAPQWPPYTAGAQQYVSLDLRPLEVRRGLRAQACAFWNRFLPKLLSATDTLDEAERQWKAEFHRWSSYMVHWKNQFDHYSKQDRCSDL

HIV-1 protease = biological target: T1, HIV-1 protease (Human immunodeficiency virus type 1 group M subtype B, UniProt P04585); details: Ahmed 1999; cited from earlier work
T1 construct: HIV-1 protease

human myotubes [5] = assay: ROS in myotubes (CellRox probe, TECAN); format: cell-based; details: TX 0.5 μg/mL 24 h, then H2O2 (550 μM) 24 h, FIG. 4E
protozoa = details: Mothana 2014; Kuzma 2017; cited from earlier work
human myoblasts [6] = assay: ROS quantification in myoblasts (Muse Oxidative Stress Kit, FACS); format: cell-based
Protocol: as §1

[7] = test system: Walker carcinosarcoma 256; details: Kupchan 1968; cited from earlier work
colon cancer cells = details: isolated in mixture with [9]-shogaol from Rosmarinus officinalis leaves; Borras Linares 2015; cited from earlier work
termites = details: Kusumoto 2009; cited from earlier work
γH2AX = assay: Western blot of phosphorylated γH2AX in myoblasts; format: cell-based, human
Protocol: Myoblasts were seeded in 35 mm collagen-coated dishes, cultured in proliferation medium, pre-incubated or not with TX for 24 h and then incubated or not with 80 μM H2O2 for 24 h. Protein extracts were separated by SDS-PAGE gel electrophoresis and transferred to nitrocellulose membranes, blocked at room temperature with Odyssey blocking buffer (Eurobio, France) and probed with the rabbit polyclonal anti-Histone H1.4 (Sigma-Aldrich; 1/5000) and rabbit polyclonal anti-gamma H2AX (Cell signalling; 1/3000) antibodies followed by IRDye® 680RD and IRDye® 800RD secondary antibodies (Eurobio, France). Fluorescence was quantified with the Odyssey software. Data were normalized to […] expression.

[8] = Kolak 2009; cited from earlier work

CC(C)c1cc2c(c(O)c1O)[C@@]1(C(=O)O)CCCC(C)(C)[C@@H]1CC2 [CA, carnosic acid]
DPPH free radical scavenging activity [1]: strong antioxidant capacities

CC(C)c1cc2c(c(O)c1O)[C@@]13CCCC(C)(C)[C@@H]1C[C@@H]2OC3=O [CO, carnosol]
DPPH free radical scavenging activity [1]: strong antioxidant capacities

CC1(C)CC(O)CC(C)(C)N1[O] [Tempol, reference compound]
protection against H2O2-induced cell death (human myoblasts [2]; pre-incubation 24 h prior to lethal H2O2 (120 μM), Tempol 50 μM, RW all tested concentrations, FIG. 1A): protected human myoblasts efficiently

O=C(/C=C/c1ccc(O)c(O)c1)O[C@H](Cc1ccc(O)c(O)c1)C(=O)O [rosmarinic acid]
DPPH free radical scavenging activity [1]: strong antioxidant capacities

CC(C)C1=CC2=CC(=O)[C@H]3C(C)(C)CCC[C@]3(C)C2=C(O)C1=O [taxodione, (4bS,8aS)-4b,5,6,7,8,8a-hexahydro-4-hydroxy-2-isopropyl-4b,8,8-trimethylphenanthrene-3,9-dione]
protein phosphatase 2C inhibitor (protein phosphatase 2C): 2C inhibitor,
anti-proliferative activity in MOLT-4, HT-29, and MCF-7 cells [3]: anti-proliferative
level of CHOP mRNA after H2O2 (CHOP gene; TX 0.5 μg/mL 24 h, then 80 μM H2O2 24 h, FIG. 4C): reduced H2O2 effects
level of CHOP mRNA, TX alone (CHOP gene; without H2O2): did not have any effect
antimicrobial activity (microbes): antimicrobial
LDH activity after H2O2 (human myotubes [4]): significantly reduced H2O2 effects
antifungal activity (fungi): Antifungal effects
anti-leishmanial activity (Leishmania): anti-leishmanial,; also recorded: anti-leishmanial
antioxidant activity (H2O2-induced cell death) compared with CA and CO (human myoblasts [2]; all tested concentrations, FIG. 3B): significantly more efficient
antibacterial activity (bacteria): antibacterial
anti-plasmodial activity (Plasmodium): anti-plasmodial
DPPH free radical scavenging activity [1]: low
acetylcholinesterase inhibition (acetylcholinesterase): inhibition
HIV-1 protease inhibitory activity (HIV-1 protease): low HIV-1 protease
ROS level (CellRox) after H2O2 (human myotubes [5]): significantly reduced H2O2 effects
antiprotozoal activity (protozoa): weak antiprotozoal
level of ROS after H2O2 (human myoblasts [6]; TX 0.5 μg/mL 24 h, then H2O2 24 h, FIG. 4A): reduced H2O2 effects
level of ROS, TX alone (human myoblasts [6]; without H2O2): did not have any effect
inhibitory activity against Walker carcinosarcoma 256 in rats [7]: inhibitory activity
anti-proliferative activity (colon cancer cells): anti-proliferative
Antitermitic activity (antifeedant effect) (termites): Antitermitic activity
level of γH2AX protein after H2O2 (γH2AX; TX 0.5 μg/mL 24 h, then 80 μM H2O2 24 h, FIG. 4B): reduced H2O2 effects
level of γH2AX protein, TX alone (γH2AX; without H2O2): did not have any effect
activity in O2 assay [8]: not active in O2 assay
